According to patent US4590199A, “Antihistaminic 2-(amino ethylamino) pyridines” (priority 1983, dated 1986):

How the values were obtained:
[1] = molecular target: T1, histamine response of longitudinal muscle isolated from the intact ileum of guinea-pigs (Cavia porcellus, UniProt P31389); assay: In vitro antihistaminic activity (histamine concentration-response curves, Schild plot); format: cell-based, guinea-pig (Hartley, male); details: for Kb: guinea-pig ileum longitudinal muscle, one hour incubation with test compound, Schild plot, read-out: pA2 (converted); for antihistamine activity (in words): of the compounds of formula (I)
T1 construct: The longitudinal muscle was isolated from the intact ileum of guinea-pigs; from tissue; host or cells: longitudinal muscle of guinea-pig ileum (Hartley, male)
Experimental: In vitro antihistaminic activity: The longitudinal muscle was isolated from the intact ileum of guinea-pigs (Hartley, male 250-400 g) and placed in an organ bath under 300 mg tension. After one hour of equilibration, cumulative concentration-response curves (Van Rossum, J. M., Arch. Int. Pharmacodyn. Ther. 143, 299-330, 1963) to histamine were obtained. Following washing, the tissues were incubated for one hour with the test compound and then a second histamine concentration-response curve was run. Shifts to the right of the agonist concentration-response curve produced by the antagonists were used to construct Schild plots (Arunlakshana, O. and Schild, H. O., Br. J. Pharmacol: 14, 48-58, 1959). Regression of Log (dr-1) on Log [B], where dr is an equiactive response in the presence and absence of antagonist and [B] is the molar concentration of antagonist, allowed an estimate of pA2, i.e. the negative log of the concentration of antagonist which shifts the control histamine concentration-response curve 2X to the right.

[2] = human, in vivo; cited from earlier work
[3] = antihistamines now in use; causes dryness of mouth, blurred vision and tachycardia; cited from earlier work

T1 sequence (P31389 whole entry): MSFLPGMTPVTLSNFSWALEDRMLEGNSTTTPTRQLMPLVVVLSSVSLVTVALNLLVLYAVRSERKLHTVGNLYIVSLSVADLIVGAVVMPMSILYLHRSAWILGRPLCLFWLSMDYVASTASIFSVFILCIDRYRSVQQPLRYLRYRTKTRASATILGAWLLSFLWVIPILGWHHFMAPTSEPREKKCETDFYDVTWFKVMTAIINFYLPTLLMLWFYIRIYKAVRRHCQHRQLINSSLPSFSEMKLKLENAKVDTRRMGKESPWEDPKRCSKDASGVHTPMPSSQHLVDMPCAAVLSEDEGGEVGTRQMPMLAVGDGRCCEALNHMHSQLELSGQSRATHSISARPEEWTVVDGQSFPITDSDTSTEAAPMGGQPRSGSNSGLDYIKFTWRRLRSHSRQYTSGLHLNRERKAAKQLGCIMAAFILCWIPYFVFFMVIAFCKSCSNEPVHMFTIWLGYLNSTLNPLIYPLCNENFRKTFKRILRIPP

| Kb [1] [µM] | antihistamine activity (in words) [1] | Structure (SMILES) | sedation and drowsiness [2] | anticholinergic activity [3] |
| --- | --- | --- | --- | --- |
| 0.251 | particularly active | COc1ccc(CN(CCN(C)C)c2cccc(/C=C/C(=O)O)n2)cc1 [Compound A, (E)-3-(6-(N-(2-dimethylaminoethyl)-4-methoxybenzylamino)-2-pyridyl)acrylicacid] | – | – |
| 1.26 | particularly active | COc1ccc(CN(CCN(C)C)c2ccc(C(=O)O)cn2)cc1 [Compound B, 6-(N-(2-dimethylaminoethyl)-4-methoxybenzylamino) nicotinic acid] | – | – |
| – | – | COc1ccc(CN(CCN(C)C)c2ccccn2)cc1 [Pyrilamine, N,N-dimethyl-N'-(4-methoxyphenylmethyl)-N'-2-pyridyl-1,2-ethanediamine] | produces sedation and drowsiness in varying degrees in most patients | varying degrees of anticholinergic activity |
| – | – | CC(CN1c2ccccc2Sc2ccccc21)N(C)C (centres unmarked) [promethazine] | – | varying degrees of anticholinergic activity |
| – | – | Cc1ccc(/C(=C\CN2CCCC2)c2ccccn2)cc1 [triprolidine] | – | varying degrees of anticholinergic activity |
